Columns and labels:
[1] = TLC analysis of pyochelin complexation with manganese-52; type: physicochemical
Experimental: (§1) All radiometals-pyochelin combinations were screened at pH 3.5, 5.5, and 7 at both 37° C. and 50° C. […] (FIG. 4F).
(§2) Extensive HPLC and thin-layer chromatography (TLC) analysis of multiple radiometals with pyochelin or DFO were performed. Radiometals were combined with siderophore at ratio of 20 uCi/ug in 50 uL buffer. Buffers consisted of sodium acetate (NaOAc), ammonium acetate, and HEPES at pH 3.5, 5.5, and 7 respectively. Complexation was heated to either 37° C. for one hour or 50° C. for one hour. Gallium-68 was prepared by concentrating the generator eluate in 0.1 M HCl onto a 30 mg Strata-XC cartridge, which was then air dried and the gallium eluted with three 150 uL aliquots of acetone. Reactions with gallium-68 were then carried out by adding 5 μg of siderophore with 50 uL of pH 3.5 sodium acetate and ˜250 uCi of gallium-68 radiometal and incubated at 37° C. for 20 minutes. Reaction products were placed on HPLC at 5-50% acetonitrile for 15 minutes using a kinetex evo C-18 column.

[2] = TLC analysis of pyochelin complexation with titanium-45; type: physicochemical
Experimental: as §1, §2

[3] = TLC analysis of pyochelin complexation with gallium-68; type: physicochemical
Experimental: as §1, §2

[4] = TLC analysis of pyochelin complexation with lead-203; type: physicochemical
Experimental: as §1, §2

[5] = TLC analysis of pyochelin complexation with zirconium-89; type: physicochemical
Experimental: as §1, §2

[6] = Preliminary screen of Cu-64 with different siderophores (complexation); type: physicochemical; conditions: for Cu-64 screen with siderophore, pH 3 / Cu-64 screen with siderophore, pH 5.5 / Cu-64 screen with siderophore, pH 7.0 / Cu-64 screen with siderophore, pH 9: 64Cu
Experimental: Preliminary in vitro data evaluating multiple siderophores with multiple radiometals to understand general binding characteristics was performed. To further evaluate Cu-64 binding affinity with Pch for in vivo applications, in vitro HPLC stability studies were performed to determine the percentage of bound Cu-64-Pch after incubation in serum. Samples were incubated for time points 0, 0.5, 1, 6, and 24. After incubation, samples were prepared for HPLC analysis by adding 500 uL of ammonium acetate with ethanol extraction solvent, spun at 12,000 RPM for 5 minutes. The top 2⁄3 of the supernatant was removed for HPLC analysis. After HPLC stability analysis, multiple HPLC purity studies were performed to determine the relative amount of free copper compared to Pch-bound copper. To prepare for purity analysis, 150 uCi of Cu-64 was incubated for 1 hour with varying amounts of 1 mg/mL pyochelin ranging from 0.5 to 10 uL, with ammonium acetate being added to reach a maximum volume of 350 uL. Additional purity studies were conducted using 150 uCi of Cu-64 along with 10 uL of 1 mg/mL pyochelin and ammonium acetate, but involved varying incubation periods consisting of 10, 20, 30, 45, and 60 minutes at 37° C. Lastly, UV chromatograms of Pch were generated using varying concentrations of Pch in ammonium acetate, consisting of 25, 50, 100, and 200 uL of Pch with ammonium acetate being added to reach 350 uL total volume. All HPLC analysis was conducted using 5-95% acetonitrile gradient over 10 minutes, with a flow rate of 1 mL/min using an Agilent Poroshell 120 EC-C18 column. Extensive HPLC and thin-layer chromatography (TLC) analysis of multiple radiometals with pyochelin or DFO were performed. Radiometals were combined with siderophore at ratio of 20 uCi/ug in 50 uL buffer. Buffers consisted of sodium acetate (NaOAc), ammonium acetate, and HEPES at pH 3.5, 5.5, and 7 respectively. […] Gallium-68 was prepared by concentrating the generator eluate in 0.1 M HCl onto a 30 mg Strata-XC cartridge, which was then air dried and the gallium eluted with three 150 uL aliquots of acetone. Reactions with gallium-68 were then carried out by adding 5 μg of siderophore with 50 uL of pH 3.5 sodium acetate and 250 uCi of gallium-68 radiometal and incubated at 37° C. for 20 minutes. Reaction products were placed on HPLC at 5-50% acetonitrile for 15 minutes using a […] evo C-18 column.

[7] = test system: fptA expressing P. aeruginosa; assay: PET/CT imaging and lung biodistribution of Cu-64 Pch in infected mice, P. aeruginosa; type: in vivo, Pseudomonas aeruginosa
Experimental: (§3) In vivo studies were performed using Balb/c mice. On day 1, Pseudomonas aeruginosa (PA01), Klebsiella pneumoniae, E. coli Nissle, E. coli UTI89, or Staphylococcus aureus bacterial concentrations of ˜3×10^6 CFU/mL were prepared via centrifugation at 7 k RPM and washed three times with 1 mL of phosphate-buffered saline (PBS). 100 uL of bacterial concentrates were administered to groups of 3 mice intra-nasally, along with one group receiving 0.9% saline. After 24 hours, Cu-64 Pch was prepared and given retro-orbitally at a dose of ˜150 uCi per mouse. 48 hours after bacterial administration, the mice underwent PET/CT imaging. Immediately after imaging, the mice were sacked, and the lungs harvested for radioactive biodistribution measurements.
(§4) An additional in vivo study was performed using only PA01 bacteria. In this example, the bacteria were administered via intra-tracheal route, rather than intra-nasal. This route of administration is limited to 20 uL. Similarly, Ga-68 pyochelin studies were performed as follows: on day 1, PA01 was grown overnight to a concentration of ˜3×10^6 CFU/mL. After overnight incubation, the bacteria was washed with PBS and 100 uL was administered intranasally to each mouse. 5 hours after bacterial administration, Ga-68 was prepared and given retro-orbitally at a dose of ˜150-200uCi per mouse. 1 hour after Ga-68 injection, the mice were imaged via PET/CT, followed by euthanasia for biodistribution of the lungs.

[8] = HPLC stability of Cu-64-Pch after incubation in serum; type: in vitro ADME; conditions: after 24 hours of serum incubation
Experimental: Preliminary in vitro data evaluating multiple siderophores with multiple radiometals to understand general binding characteristics was performed. To further evaluate Cu-64 binding affinity with Pch for in vivo applications, in vitro HPLC stability studies were performed to determine the percentage of bound Cu-64-Pch after incubation in serum. Samples were incubated for time points 0, 0.5, 1, 6, and 24. After incubation, samples were prepared for HPLC analysis by adding ˜500 uL of ammonium acetate with ethanol extraction solvent, spun at 12,000 RPM for 5 minutes. The top ⅔ of the supernatant was removed for HPLC analysis. After HPLC stability analysis, multiple HPLC purity studies were performed to determine the relative amount of free copper compared to Pch-bound copper. To prepare for purity analysis, ˜150 uCi of Cu-64 was incubated for 1 hour with varying amounts of 1 mg/mL pyochelin ranging from 0.5 to 10 uL, with ammonium acetate being added to reach a maximum volume of 350 uL. Additional purity studies were conducted using ˜150 uCi of Cu-64 along with 10 uL of 1 mg/mL pyochelin and ammonium acetate, but involved varying incubation periods consisting of 10, 20, 30, 45, and 60 minutes at 37° C. […]

[9] = test system: non-fptA expressing organisms; assay: PET/CT imaging and lung biodistribution of Cu-64 Pch in infected mice, non-fptA organisms; type: in vivo
Experimental: as §3

[10] = test system: fptA expressing P. aeruginosa; assay: PET/CT imaging and ex vivo biodistribution of Ga-68 pyochelin, P. aeruginosa; type: in vivo, Pseudomonas aeruginosa; conditions: mice, bacteria intranasally, probe retro-orbitally ~150-200uCi, PET/CT 1 hour after injection
Experimental: as §4

[11] = Radio chromatogram stability of gallium bound Pch in serum; type: in vitro ADME
[12] = test system: non-fptA expressing organisms; assay: PET/CT imaging and ex vivo biodistribution of Ga-68 pyochelin, non-fptA organisms; type: in vivo; conditions: mice with non-fptA expressing organisms
[13] = iTLC and HPLC characterization of DFO complexes, 64Cu; type: physicochemical; conditions: 37° C.
Experimental: as §2

[14] = iTLC and HPLC characterization of DFO complexes, 68Ga; type: physicochemical; conditions: for DFO complex, pH 3 / DFO complex, pH 5.5: 68Ga, 37° C.
Experimental: as §2

[15] = test system: FoxA expressing P. aeruginosa; assay: PET/CT imaging and ex vivo biodistribution of Ga-68 DFO, P. aeruginosa; type: in vivo, Pseudomonas aeruginosa
[16] = test system: non-FoxA expressing organisms; assay: PET/CT imaging and ex vivo biodistribution of Ga-68 DFO, non-FoxA organisms; type: in vivo
[17] = pH 3.5, 5.5, 7, 37° C. and 50° C.

CN1[C@@H]([C@H]2CSC(c3ccccc3O)=N2)SC[C@H]1C(=O)O [PcH, pyochelin]
pH 3.5 (% complex) ([1]; Manganese-52, pH 3.5, 37° C.): 1.2 % complex | pH 5.5 (% complex) ([1]; Manganese-52, pH 5.5, 37° C.): 2.2 % complex | pH 7 (% complex) ([1]; Manganese-52, pH 7, 37° C.): 1.1 % complex | association between pyochelin and manganese-52 (TLC) [1, 17]: mostly poor association | pH 3.5 (% complex) ([2]; Titanium-45, pH 3.5, 37° C.): 33.1 % complex | pH 5.5 (% complex) ([2]; Titanium-45, pH 5.5, 37° C.): 72.3 % complex | pH 7 (% complex) ([2]; Titanium-45, pH 7, 37° C.): 60 % complex | association between pyochelin and titanium-45 (TLC) [2, 17]: mostly poor association | pH 3.5 (% complex) ([3]; Gallium-68, pH 3.5, 37° C.): 100 % complex | pH 5.5 (% complex) ([3]; Gallium-68, pH 5.5, 37° C.): 100 % complex | pH 7 (% complex) ([3]; Gallium-68, pH 7, 37° C.): 100 % complex | complexation of gallium-68 with pyochelin ([3]; all three pH conditions (3.5, 5.5, 7) at 37° C.): 100% | pH 3.5 (% complex) ([4]; Lead-203, pH 3.5, 37° C.): 3 % complex | pH 5.5 (% complex) ([4]; Lead-203, pH 5.5, 37° C.): 3 % complex | pH 7 (% complex) ([4]; Lead-203, pH 7, 37° C.): 2 % complex | association between pyochelin and lead-203 (TLC) [4, 17]: mostly poor association | pH 3.5 (% complex) ([5]; Zirconium-89, pH 3.5, 37° C.): 22.8 % complex | pH 5.5 (% complex) ([5]; Zirconium-89, pH 5.5, 37° C.): 73.7 % complex | pH 7 (% complex) ([5]; Zirconium-89, pH 7, 37° C.): 75.6 % complex | association between pyochelin and zirconium-89 (TLC) [5, 17]: mostly poor association | Cu-64 screen with siderophore, pH 3 ([6]; 37° C., 60 mins): 0 | Cu-64 screen with siderophore, pH 5.5 ([6]; 37° C., 60 mins): 85 | Cu-64 screen with siderophore, pH 7.0 ([6]; 37° C., 60 mins): 95 | Cu-64 screen with siderophore, pH 9 ([6]; 37° C., 60 mins): 0 | Cu-64 screen with siderophore, pH 3 ([6]; 90° C., 30 mins): 0 | Cu-64 screen with siderophore, pH 5.5 ([6]; 90° C., 30 mins): 0 | Cu-64 screen with siderophore, pH 7.0 ([6]; 90° C., 30 mins): 0 | Cu-64 screen with siderophore, pH 9 ([6]; 90° C., 30 mins): 0 | complexation of pyochelin with copper-64, in words ([6]; in vitro studies): complexes extremely well | binding affinity between Cu-64 and PcH ([6]; pH 5.5 and pH 7, 37° C.): high binding affinity

copper-64 bound pyochelin [Cu-64-Pch]
uptake of probe in the lungs (imaging and radioactive biodistribution) ([7]; Balb/c mice, bacteria intra-nasally, probe retro-orbitally ~150 uCi, PET/CT 48 hours after bacteria): increased uptake | transport of probe into bacterial cells (in vivo images) ([7]; P. aeruginosa cells): transported into the P. aeruginosa cells | biodistribution levels in lungs ([7]; P. aeruginosa containing lungs): elevated levels | biodistribution and probe accumulation, intra-tracheal compared to intra-nasal bacterial administration ([7]; PA01 administered intra-tracheally vs intra-nasally): significant increase in biodistribution and probe accumulation | stability after serum incubation (HPLC) [8]: ≥ 91% | uptake of probe in the lungs (imaging and radioactive biodistribution) ([9]; Balb/c mice infected with non-fptA expressing organisms, probe retro-orbitally ~150 uCi): limited uptake | transport of probe into bacterial cells (in vivo images) ([9]; bacterial cells that don't express the fptA receptor): not transported

gallium-68 bound pyochelin [Ga-68 Pch]
uptake of probe in the lungs (in vivo imaging and ex vivo biodistribution) [10]: increased uptake | stability in serum (radio chromatogram) [11]: high stability in serum | uptake of probe in the lungs (in vivo imaging and ex vivo biodistribution) [12]: limited uptake

CC(=O)N(O)CCCCCNC(=O)CCC(=O)N(O)CCCCCNC(=O)CCC(=O)N(O)CCCCCN [DFO, desferrioxamine B]
DFO complex, pH 3 ([13]; 20 mins): 1 | DFO complex, pH 5.5 ([13]; 20 mins): 4 | DFO complex, pH 3 ([13]; 60 mins): 1 | DFO complex, pH 5.5 ([13]; 60 mins): 1 | DFO complex, pH 3 ([14]; 20 mins): 93 | DFO complex, pH 5.5 ([14]; 20 mins): 62 | DFO complex, pH 3 ([14]; 60 mins): 92 | DFO complex, pH 5.5 ([14]; 60 mins): 98 | complexation between Ga-68 and DFO, in words ([14]; pH 3 and pH 5.5, 37° C.): high complexation

CC(=O)N([O-])CCCCCNC(=O)CCC(=O)N([O-])CCCCCNC(=O)CCC(=O)N([O-])CCCCCN.[68Ga+3] [Ga-68 DFO, gallium-68 bound DFO]
uptake of probe in the lungs (in vivo imaging and ex vivo biodistribution) [15]: increased uptake | uptake of probe in the lungs (in vivo imaging and ex vivo biodistribution) [16]: limited uptake

Reference: patent US20250228984A1, “Metallophore-Radionuclide Complex as Nuclear Imaging Contrast Agents” (priority 2024, published 2025)
